Assays:
Settings in all cases: Compound concentration 1.0 uM
[1] = biological target: Ribosomal protein S6 kinase beta-1 (Homo sapiens) (UniProt P23443)
[2] = biological target: [Pyruvate dehydrogenase (acetyl-transferring)] kinase isozyme 1, mitochondrial (Homo sapiens) (UniProt Q15118)
[3] = biological target: Ribosomal protein S6 kinase alpha-2 (Homo sapiens) (UniProt Q15349)
[4] = biological target: Leukocyte tyrosine kinase receptor (Homo sapiens) (UniProt P29376)
[5] = biological target: Homeodomain-interacting protein kinase 1 (Homo sapiens) (UniProt Q86Z02)
[6] = biological target: Serine/threonine-protein kinase WNK2 (Homo sapiens) (UniProt Q9Y3S1)
Sequence of Serine/threonine-protein kinase WNK2 (Homo sapiens) (Q9Y3S1 whole entry): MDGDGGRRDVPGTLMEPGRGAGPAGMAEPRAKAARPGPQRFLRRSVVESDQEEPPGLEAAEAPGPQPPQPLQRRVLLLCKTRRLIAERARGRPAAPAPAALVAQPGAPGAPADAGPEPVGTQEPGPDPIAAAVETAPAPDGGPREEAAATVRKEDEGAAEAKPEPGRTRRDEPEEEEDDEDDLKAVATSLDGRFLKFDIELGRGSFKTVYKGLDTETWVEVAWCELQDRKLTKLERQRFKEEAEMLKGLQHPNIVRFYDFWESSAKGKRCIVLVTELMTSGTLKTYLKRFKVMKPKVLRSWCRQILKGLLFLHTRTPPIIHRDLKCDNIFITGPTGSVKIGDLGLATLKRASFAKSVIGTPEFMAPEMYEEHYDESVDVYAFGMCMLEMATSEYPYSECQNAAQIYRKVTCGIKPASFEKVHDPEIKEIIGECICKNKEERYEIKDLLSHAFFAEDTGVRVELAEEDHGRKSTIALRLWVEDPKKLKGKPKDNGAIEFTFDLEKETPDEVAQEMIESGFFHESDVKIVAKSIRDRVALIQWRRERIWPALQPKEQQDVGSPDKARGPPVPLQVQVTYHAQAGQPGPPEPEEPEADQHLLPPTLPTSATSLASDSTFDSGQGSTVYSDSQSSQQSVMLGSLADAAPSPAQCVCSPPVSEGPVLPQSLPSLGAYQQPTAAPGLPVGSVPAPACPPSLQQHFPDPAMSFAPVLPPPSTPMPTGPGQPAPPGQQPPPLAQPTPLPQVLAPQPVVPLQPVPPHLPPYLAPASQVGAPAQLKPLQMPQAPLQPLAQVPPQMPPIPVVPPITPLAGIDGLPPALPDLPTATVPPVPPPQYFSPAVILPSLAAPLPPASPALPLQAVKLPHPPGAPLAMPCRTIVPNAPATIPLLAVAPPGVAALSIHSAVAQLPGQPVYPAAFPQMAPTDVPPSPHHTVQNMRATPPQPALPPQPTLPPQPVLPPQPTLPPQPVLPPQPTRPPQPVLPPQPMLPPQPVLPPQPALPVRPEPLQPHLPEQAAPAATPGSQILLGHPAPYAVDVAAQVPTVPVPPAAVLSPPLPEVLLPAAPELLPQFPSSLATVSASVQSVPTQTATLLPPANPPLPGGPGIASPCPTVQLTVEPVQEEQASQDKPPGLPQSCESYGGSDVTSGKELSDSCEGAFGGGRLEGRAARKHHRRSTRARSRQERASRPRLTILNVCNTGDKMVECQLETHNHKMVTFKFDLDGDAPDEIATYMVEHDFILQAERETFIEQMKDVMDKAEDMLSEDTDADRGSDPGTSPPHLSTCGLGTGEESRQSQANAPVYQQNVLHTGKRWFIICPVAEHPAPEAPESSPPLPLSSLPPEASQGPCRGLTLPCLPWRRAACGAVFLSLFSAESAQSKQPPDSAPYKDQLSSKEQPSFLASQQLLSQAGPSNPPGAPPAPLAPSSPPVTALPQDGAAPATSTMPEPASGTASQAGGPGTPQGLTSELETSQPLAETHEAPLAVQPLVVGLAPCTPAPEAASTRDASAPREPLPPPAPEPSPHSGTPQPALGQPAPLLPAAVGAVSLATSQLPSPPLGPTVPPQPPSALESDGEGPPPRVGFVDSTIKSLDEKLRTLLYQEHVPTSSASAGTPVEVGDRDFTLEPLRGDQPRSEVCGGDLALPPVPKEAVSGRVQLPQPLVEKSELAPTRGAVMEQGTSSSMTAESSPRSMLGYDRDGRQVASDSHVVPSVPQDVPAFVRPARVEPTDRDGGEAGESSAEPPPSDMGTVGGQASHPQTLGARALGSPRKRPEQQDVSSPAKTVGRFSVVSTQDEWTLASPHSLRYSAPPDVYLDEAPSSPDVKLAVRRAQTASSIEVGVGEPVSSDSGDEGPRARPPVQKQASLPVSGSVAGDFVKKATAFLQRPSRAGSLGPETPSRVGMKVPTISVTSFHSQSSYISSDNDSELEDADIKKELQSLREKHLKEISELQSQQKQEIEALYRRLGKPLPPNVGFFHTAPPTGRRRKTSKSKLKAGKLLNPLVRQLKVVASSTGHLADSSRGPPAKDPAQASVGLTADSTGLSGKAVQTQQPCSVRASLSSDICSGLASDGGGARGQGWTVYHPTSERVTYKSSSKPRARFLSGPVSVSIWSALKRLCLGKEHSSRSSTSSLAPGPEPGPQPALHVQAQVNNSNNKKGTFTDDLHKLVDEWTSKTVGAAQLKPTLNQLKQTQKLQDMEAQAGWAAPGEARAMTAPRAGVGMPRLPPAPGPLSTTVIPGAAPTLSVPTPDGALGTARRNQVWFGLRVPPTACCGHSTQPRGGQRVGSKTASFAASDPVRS

[7] = biological target: Myosin light chain kinase 2, skeletal/cardiac muscle (Homo sapiens) (UniProt Q9H1R3)
[8] = biological target: Tyrosine-protein kinase Fgr (Homo sapiens) (UniProt P09769)
Sequence of Tyrosine-protein kinase Fgr (Homo sapiens) (P09769 2-529 limits assumed): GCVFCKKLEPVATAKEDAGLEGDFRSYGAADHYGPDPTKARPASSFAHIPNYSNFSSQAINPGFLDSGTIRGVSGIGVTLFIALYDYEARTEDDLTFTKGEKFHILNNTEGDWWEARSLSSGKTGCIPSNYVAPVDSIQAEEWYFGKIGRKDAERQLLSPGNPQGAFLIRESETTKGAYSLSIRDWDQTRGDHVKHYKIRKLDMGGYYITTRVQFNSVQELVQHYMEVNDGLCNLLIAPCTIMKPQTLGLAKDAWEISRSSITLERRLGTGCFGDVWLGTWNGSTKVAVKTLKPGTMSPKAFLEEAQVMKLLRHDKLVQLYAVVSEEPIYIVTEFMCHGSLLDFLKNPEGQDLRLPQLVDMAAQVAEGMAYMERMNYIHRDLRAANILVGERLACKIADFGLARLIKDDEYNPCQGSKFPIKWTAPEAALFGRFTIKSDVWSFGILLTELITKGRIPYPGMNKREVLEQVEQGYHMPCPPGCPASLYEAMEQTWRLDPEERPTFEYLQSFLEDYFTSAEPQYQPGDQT

[9] = biological target: Calcium/calmodulin-dependent protein kinase kinase 2 (Homo sapiens) (UniProt Q96RR4)
[10] = biological target: Tyrosine-protein kinase Blk (Homo sapiens) (UniProt P51451)
[11] = biological target: T1, Serine/threonine-protein kinase TAO3 (Homo sapiens) (UniProt Q9H2K8)
T1 sequence (whole entry): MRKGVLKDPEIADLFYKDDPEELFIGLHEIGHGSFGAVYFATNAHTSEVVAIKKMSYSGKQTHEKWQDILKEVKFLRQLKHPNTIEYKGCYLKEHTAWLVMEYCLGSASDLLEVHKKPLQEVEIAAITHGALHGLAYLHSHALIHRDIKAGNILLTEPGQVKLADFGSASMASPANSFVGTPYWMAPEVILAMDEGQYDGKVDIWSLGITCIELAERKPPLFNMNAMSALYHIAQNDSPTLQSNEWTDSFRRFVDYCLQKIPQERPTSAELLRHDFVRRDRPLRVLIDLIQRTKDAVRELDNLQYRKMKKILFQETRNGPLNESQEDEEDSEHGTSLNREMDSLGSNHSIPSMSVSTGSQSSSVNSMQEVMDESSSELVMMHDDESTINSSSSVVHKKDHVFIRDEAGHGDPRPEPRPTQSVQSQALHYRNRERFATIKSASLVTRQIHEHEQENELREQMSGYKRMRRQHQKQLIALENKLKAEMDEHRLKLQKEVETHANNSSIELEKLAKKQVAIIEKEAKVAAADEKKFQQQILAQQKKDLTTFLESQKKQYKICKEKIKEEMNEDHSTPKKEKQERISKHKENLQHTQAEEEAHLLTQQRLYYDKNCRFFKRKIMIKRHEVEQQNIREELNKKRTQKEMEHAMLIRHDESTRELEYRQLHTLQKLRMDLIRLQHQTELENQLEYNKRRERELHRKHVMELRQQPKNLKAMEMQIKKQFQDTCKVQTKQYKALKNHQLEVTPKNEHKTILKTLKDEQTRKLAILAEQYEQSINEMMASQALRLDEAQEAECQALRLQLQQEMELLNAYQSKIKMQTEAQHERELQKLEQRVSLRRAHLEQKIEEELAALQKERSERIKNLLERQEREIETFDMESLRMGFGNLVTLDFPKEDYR

[12] = biological target: T2, Testis-specific serine/threonine-protein kinase 1 (Homo sapiens) (UniProt Q9BXA7)
T2 sequence (whole entry): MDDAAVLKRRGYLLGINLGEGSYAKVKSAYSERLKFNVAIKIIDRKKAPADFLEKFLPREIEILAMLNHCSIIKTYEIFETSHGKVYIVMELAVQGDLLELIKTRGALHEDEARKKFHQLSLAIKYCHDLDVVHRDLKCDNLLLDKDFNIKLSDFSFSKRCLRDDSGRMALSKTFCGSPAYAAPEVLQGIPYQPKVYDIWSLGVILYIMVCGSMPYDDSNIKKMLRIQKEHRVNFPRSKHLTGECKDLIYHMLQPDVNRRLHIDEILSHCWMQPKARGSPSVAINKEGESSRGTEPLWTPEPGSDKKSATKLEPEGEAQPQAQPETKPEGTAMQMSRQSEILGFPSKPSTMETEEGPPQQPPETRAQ

[13] = biological target: Mitogen-activated protein kinase kinase kinase 10 (Homo sapiens) (UniProt Q02779)
[14] = biological target: Fibroblast growth factor receptor 3 (Homo sapiens) (UniProt P22607)
[15] = biological target: Cyclin-dependent kinase 2/cyclin A (Homo sapiens) (UniProt P24941+P20248+P78396)
[16] = biological target: Serine/threonine-protein kinase MARK1 (Homo sapiens) (UniProt Q9P0L2)
Sequence of Serine/threonine-protein kinase MARK1 (Homo sapiens) (Q9P0L2 whole entry, looked up): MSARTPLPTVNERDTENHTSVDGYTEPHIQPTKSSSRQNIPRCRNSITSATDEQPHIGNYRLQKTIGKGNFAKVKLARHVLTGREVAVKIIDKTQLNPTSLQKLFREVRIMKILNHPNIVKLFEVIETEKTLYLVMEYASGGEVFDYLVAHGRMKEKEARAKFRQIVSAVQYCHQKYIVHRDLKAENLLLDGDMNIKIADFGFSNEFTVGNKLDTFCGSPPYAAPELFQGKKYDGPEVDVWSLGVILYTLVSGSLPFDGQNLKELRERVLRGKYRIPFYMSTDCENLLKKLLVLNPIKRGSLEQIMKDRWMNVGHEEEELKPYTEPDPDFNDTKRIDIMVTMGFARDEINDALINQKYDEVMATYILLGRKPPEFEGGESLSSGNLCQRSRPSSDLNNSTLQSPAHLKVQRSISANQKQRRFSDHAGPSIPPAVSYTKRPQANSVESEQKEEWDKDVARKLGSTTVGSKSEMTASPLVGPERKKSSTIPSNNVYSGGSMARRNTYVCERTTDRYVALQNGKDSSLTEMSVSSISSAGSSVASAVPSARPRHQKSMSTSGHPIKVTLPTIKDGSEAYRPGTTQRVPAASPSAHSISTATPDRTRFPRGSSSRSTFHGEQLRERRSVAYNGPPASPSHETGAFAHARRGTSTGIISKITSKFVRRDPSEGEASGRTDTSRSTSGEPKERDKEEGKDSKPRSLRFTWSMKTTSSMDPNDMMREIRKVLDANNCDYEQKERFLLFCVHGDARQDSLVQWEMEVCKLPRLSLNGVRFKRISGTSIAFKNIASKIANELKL

Measured: % residual kinase activity

Sequence of Ribosomal protein S6 kinase beta-1 (Homo sapiens) (P23443 whole entry, looked up): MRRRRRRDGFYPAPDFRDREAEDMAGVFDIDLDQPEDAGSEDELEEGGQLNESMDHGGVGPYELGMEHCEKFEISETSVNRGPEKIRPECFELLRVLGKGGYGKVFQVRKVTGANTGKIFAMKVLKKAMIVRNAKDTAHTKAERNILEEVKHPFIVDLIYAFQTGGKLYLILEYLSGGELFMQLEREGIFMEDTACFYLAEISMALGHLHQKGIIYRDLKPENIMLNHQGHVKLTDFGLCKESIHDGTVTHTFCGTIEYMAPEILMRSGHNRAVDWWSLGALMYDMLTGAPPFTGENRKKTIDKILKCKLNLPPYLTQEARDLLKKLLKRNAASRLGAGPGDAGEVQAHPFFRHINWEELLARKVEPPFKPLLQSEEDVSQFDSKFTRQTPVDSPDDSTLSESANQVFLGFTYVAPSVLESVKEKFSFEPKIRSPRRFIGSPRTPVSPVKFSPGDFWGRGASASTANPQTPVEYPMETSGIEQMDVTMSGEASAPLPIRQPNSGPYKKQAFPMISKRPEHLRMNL
Sequence of Ribosomal protein S6 kinase alpha-2 (Homo sapiens) (Q15349 whole entry): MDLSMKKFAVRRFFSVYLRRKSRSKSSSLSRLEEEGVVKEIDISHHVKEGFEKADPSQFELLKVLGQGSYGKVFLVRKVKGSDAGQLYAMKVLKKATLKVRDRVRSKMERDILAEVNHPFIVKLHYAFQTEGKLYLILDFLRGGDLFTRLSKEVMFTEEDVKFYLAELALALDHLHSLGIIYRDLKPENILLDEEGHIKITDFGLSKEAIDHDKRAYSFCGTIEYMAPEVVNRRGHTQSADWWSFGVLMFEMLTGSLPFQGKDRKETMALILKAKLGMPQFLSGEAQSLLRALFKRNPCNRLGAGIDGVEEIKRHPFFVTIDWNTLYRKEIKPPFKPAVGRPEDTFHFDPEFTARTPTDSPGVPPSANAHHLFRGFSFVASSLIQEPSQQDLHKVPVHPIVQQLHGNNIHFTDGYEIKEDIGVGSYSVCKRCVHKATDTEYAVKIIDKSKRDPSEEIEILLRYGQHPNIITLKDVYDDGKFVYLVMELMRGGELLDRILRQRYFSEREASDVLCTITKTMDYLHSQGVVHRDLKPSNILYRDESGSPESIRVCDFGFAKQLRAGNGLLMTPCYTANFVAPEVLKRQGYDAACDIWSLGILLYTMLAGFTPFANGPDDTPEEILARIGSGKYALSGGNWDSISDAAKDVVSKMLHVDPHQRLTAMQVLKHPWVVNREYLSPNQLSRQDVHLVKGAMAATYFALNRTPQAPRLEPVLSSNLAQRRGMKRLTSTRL

CN1CCN(c2cnc3c(C4CCN(C(=O)c5ccc(OC(F)(F)F)cc5N)CC4)ncnc3c2)CC1 [BAY-885]
inactive: [1] 118% | [2] 89% | [3] 98% | [4] 103% | [5] 116% | [6] 107% | [7] 93% | [8] 98% | [9] 102% | [10] 88% | [11] 110% | [12] 107% | [13] 107% | [14] 106% | [15] 105% | [16] 112%
